Measurements: patent publication US11498899B2, “Nitrone herbicides” (FMC Corporation, priority 2016, dated 2022)

What was measured:
[1] = system: barnyardgrass (Echinochloa crus-galli); experiment: Test A preemergence, visual injury rating 0-100 (0 no effect, 100 complete control); format: in vivo
[2] = system: foxtail, giant (giant foxtail, Setaria faberii); experiment: Test A preemergence, visual injury rating 0-100; format: in vivo
[3] = system: kochia (Kochia scoparia); experiment: Test A preemergence, visual injury rating 0-100; format: in vivo
[4] = system: pigweed (Amaranthus retroflexus); experiment: Test A preemergence, visual injury rating 0-100; format: in vivo
[5] = system: ragweed (common ragweed, Ambrosia elatior); experiment: Test A preemergence, visual injury rating 0-100; format: in vivo
[6] = system: ryegrass, Italian (Italian ryegrass, Lolium multiflorum); experiment: Test A preemergence, visual injury rating 0-100; format: in vivo
[7] = system: barnyardgrass (Echinochloa crus-galli); experiment: Test A postemergence, visual injury rating 0-100; format: in vivo; details: 0 to 100 scale
[8] = system: blackgrass (Alopecurus myosuroides); experiment: Test A postemergence, visual injury rating 0-100; format: in vivo; details: 0 to 100 scale
[9] = system: corn (Zea mays); experiment: Test A postemergence, visual injury rating 0-100; format: in vivo; details: 0 to 100 scale
[10] = system: foxtail, giant (giant foxtail, Setaria faberii); experiment: Test A postemergence, visual injury rating 0-100; format: in vivo; details: 0 to 100 scale
[11] = system: galium (catchweed bedstraw, Galium aparine); experiment: Test A postemergence, visual injury rating 0-100; format: in vivo; details: 0 to 100 scale
[12] = system: kochia (Kochia scoparia); experiment: Test A postemergence, visual injury rating 0-100; format: in vivo; details: 0 to 100 scale
[13] = system: pigweed (Amaranthus retroflexus); experiment: Test A postemergence, visual injury rating 0-100; format: in vivo; details: 0 to 100 scale
[14] = system: ragweed (common ragweed, Ambrosia elatior); experiment: Test A postemergence, visual injury rating 0-100; format: in vivo; details: 0 to 100 scale
[15] = system: ryegrass, Italian (Italian ryegrass, Lolium multiflorum); experiment: Test A postemergence, visual injury rating 0-100; format: in vivo; details: 0 to 100 scale
[16] = system: wheat (Triticum aestivum); experiment: Test A postemergence, visual injury rating 0-100; format: in vivo; details: 0 to 100 scale
[17] = system: ducksalad (Heteranthera limosa); experiment: Test B flooded paddy test, visual rating 0-100; details: Flood, 250 g ai/ha, applied to paddy water, rated after 13 to 15 days
[18] = system: barnyardgrass (Echinochloa crus-galli); experiment: Test B flooded paddy test, visual rating 0-100; details: Flood, 250 g ai/ha, applied to paddy water, rated after 13 to 15 days
[19] = system: rice (Oryza sativa); experiment: Test B flooded paddy test, visual rating 0-100 (0 no effect, 100 complete control); details: Flood, 250 g ai/ha, applied to paddy water, rated after 13 to 15 days

Compound | Barnyardgrass plant response rating (0 to 100 scale) ([1]; 125 g ai/ha) | Foxtail, Giant plant response rating (0 to 100 scale) ([2]; 125 g ai/ha) | Kochia plant response rating (0 to 100 scale) ([3]; 125 g ai/ha) | Pigweed plant response rating (0 to 100 scale) ([4]; 125 g ai/ha) | Ragweed plant response rating (0 to 100 scale) ([5]; 125 g ai/ha) | Barnyardgrass plant response rating ([7]; 125 g ai/ha) | Barnyardgrass plant response rating ([7]; 500 g ai/ha) | Blackgrass plant response rating ([8]; 125 g ai/ha) | Blackgrass plant response rating ([8]; 500 g ai/ha) | Corn plant response rating ([9]; 125 g ai/ha) | Corn plant response rating ([9]; 500 g ai/ha) | Foxtail, Giant plant response rating ([10]; 125 g ai/ha) | Foxtail, Giant plant response rating ([10]; 500 g ai/ha) | Galium plant response rating ([11]; 125 g ai/ha) | Galium plant response rating ([11]; 500 g ai/ha) | Kochia plant response rating ([12]; 125 g ai/ha) | Kochia plant response rating ([12]; 500 g ai/ha) | Pigweed plant response rating ([13]; 125 g ai/ha) | Pigweed plant response rating ([13]; 500 g ai/ha) | Ragweed plant response rating ([14]; 500 g ai/ha) | further results
COc1cccc(C2CC(C)=[N+]([O-])C2C(=O)Nc2cccc(F)c2F)n1 (racemic) [Compound 67] | 0 | 0 | 0 | 0 | 0 | 0 | 0 | 0 | 0 | 0 | 0 | 0 | 10 | 0 | 0 | 0 | 0 | 0 | 0 | 0 | Barnyardgrass plant response rating (0 to 100 scale) ([1]; 500 g ai/ha): 70; Foxtail, Giant plant response rating (0 to 100 scale) ([2]; 500 g ai/ha): 60; Kochia plant response rating (0 to 100 scale) ([3]; 500 g ai/ha): 0; Pigweed plant response rating (0 to 100 scale) ([4]; 500 g ai/ha): 0; Ragweed plant response rating (0 to 100 scale) ([5]; 500 g ai/ha): 0; Ryegrass, Italian plant response rating (0 to 100 scale) ([6]; 125 g ai/ha): 0; Ryegrass, Italian plant response rating (0 to 100 scale) ([6]; 500 g ai/ha): 0; Ragweed plant response rating ([14]; 125 g ai/ha): 0; Ryegrass, Italian plant response rating ([15]; 125 g ai/ha): 0; Ryegrass, Italian plant response rating ([15]; 500 g ai/ha): 0; Wheat plant response rating ([16]; 125 g ai/ha): 0; Wheat plant response rating ([16]; 500 g ai/ha): 0; Ducksalad plant response rating (0 to 100 scale) [17]: 65; Barnyardgrass plant response rating (0 to 100 scale) [18]: 15; Rice plant response rating (0 to 100 scale) [19]: 15
CC1=[N+]([O-])C(C(=O)Nc2cccc(F)c2F)C(c2cccc(Cl)c2)C1 (racemic) [Compound 3] | 100 | 100 | 30 | 20 | 30 | 80 | 90 | 30 | 80 | 40 | 90 | 80 | 90 | 60 | 70 | 20 | 60 | 0 | 20 | 50 | Barnyardgrass plant response rating ([1]; 500 g ai/ha, 0 to 100 scale): 100; Foxtail, Giant plant response rating ([2]; 500 g ai/ha, 0 to 100 scale): 100; Kochia plant response rating ([3]; 500 g ai/ha, 0 to 100 scale): 90; Pigweed plant response rating ([4]; 500 g ai/ha, 0 to 100 scale): 70; Ragweed plant response rating ([5]; 500 g ai/ha, 0 to 100 scale): 70; Ryegrass, Italian plant response rating (0 to 100 scale) ([6]; 125 g ai/ha): 20; Ryegrass, Italian plant response rating ([6]; 500 g ai/ha, 0 to 100 scale): 50; Ryegrass, Italian plant response rating ([15]; 125 g ai/ha): 0; Ryegrass, Italian plant response rating ([15]; 500 g ai/ha): 70; Wheat plant response rating ([16]; 125 g ai/ha): 30; Wheat plant response rating ([16]; 500 g ai/ha): 80; Ducksalad plant response rating (0 to 100 scale) [17]: 100; Barnyardgrass plant response rating (0 to 100 scale) [18]: 80; Rice plant response rating (0 to 100 scale) [19]: 0
CC1=[N+]([O-])C(C(=O)Nc2cccc(F)c2F)C(c2cc(C)c(F)c(C)c2)C1 (racemic) [Compound 111] | 90 | 90 | 0 | 20 | 0 | 70 | 90 | 80 | 80 | 70 | 90 | 40 | 90 | 50 | 70 | 0 | 0 | 0 | 20 | 70 | Barnyardgrass plant response rating (0 to 100 scale) ([1]; 500 g ai/ha): 90; Foxtail, Giant plant response rating (0 to 100 scale) ([2]; 500 g ai/ha): 90; Kochia plant response rating (0 to 100 scale) ([3]; 500 g ai/ha): 90; Pigweed plant response rating (0 to 100 scale) ([4]; 500 g ai/ha): 60; Ragweed plant response rating (0 to 100 scale) ([5]; 500 g ai/ha): 90; Ryegrass, Italian plant response rating (0 to 100 scale) ([6]; 500 g ai/ha): 90; Ragweed plant response rating ([14]; 125 g ai/ha): 30; Ryegrass, Italian plant response rating ([15]; 125 g ai/ha): 40; Ryegrass, Italian plant response rating ([15]; 500 g ai/ha): 80; Wheat plant response rating ([16]; 125 g ai/ha): 50; Wheat plant response rating ([16]; 500 g ai/ha): 70; Ducksalad plant response rating (0 to 100 scale) [17]: 0; Barnyardgrass plant response rating (0 to 100 scale) [18]: 0; Rice plant response rating (0 to 100 scale) [19]: 0
CC1=[N+]([O-])C(C(=O)Nc2cccc(F)c2F)C(c2ccc(C)c(Br)c2)C1 (racemic) [Compound 71] | 90 | 80 | 10 | 0 | 0 | 80 | 90 | 40 | 70 | 70 | 90 | 40 | 60 | 30 | 50 | 10 | 50 | 20 | 10 | 50 | Barnyardgrass plant response rating (0 to 100 scale) ([1]; 500 g ai/ha): 90; Foxtail, Giant plant response rating (0 to 100 scale) ([2]; 500 g ai/ha): 90; Kochia plant response rating (0 to 100 scale) ([3]; 500 g ai/ha): 80; Pigweed plant response rating (0 to 100 scale) ([4]; 500 g ai/ha): 40; Ragweed plant response rating (0 to 100 scale) ([5]; 500 g ai/ha): 60; Ryegrass, Italian plant response rating (0 to 100 scale) ([6]; 125 g ai/ha): 30; Ryegrass, Italian plant response rating (0 to 100 scale) ([6]; 500 g ai/ha): 90; Ragweed plant response rating ([14]; 125 g ai/ha): 0; Ryegrass, Italian plant response rating ([15]; 125 g ai/ha): 60; Ryegrass, Italian plant response rating ([15]; 500 g ai/ha): 80; Wheat plant response rating ([16]; 125 g ai/ha): 20; Wheat plant response rating ([16]; 500 g ai/ha): 70; Ducksalad plant response rating (0 to 100 scale) [17]: 0; Barnyardgrass plant response rating (0 to 100 scale) [18]: 0; Rice plant response rating (0 to 100 scale) [19]: 0
